Measured values taken from patent US8802597B2, “Herbicidal pyrimidines” (E I du Pont de Nemours and Company, priority 2003, dated 2014).
Read-outs that look alike come from different tables or passages of the source.

Assays:
Assay in all cases: Test C pre/postemergence
Type in all cases: in vivo
[1] = system: cocklebur (Xanthium strumarium); details: Xanthium strumarium; for pest or weed control at 16 g/ha: 16 g ai/ha; for pest or weed control at 31 g/ha: 31 g ai/ha; for pest or weed control at 62 g/ha: 62 g ai/ha; for pest or weed control at 125 g/ha: 125 g ai/ha
Outline: (§1)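 Greenhouse pot test: seeds treated preemergence, or plants at 2–18 cm (1- to 4-leaf stage) treated postemergence, with compound in non-phytotoxic solvent plus surfactant. Visual rating versus untreated controls after 12–14 days, scale 0 (no effect) to 100 (complete control); dash means not tested.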

[2] = system: Surinam grass (Brachiaria decumbens); details: Urochloa decumbens; for pest or weed control at 16 g/ha: 16 g ai/ha; for pest or weed control at 31 g/ha: 31 g ai/ha; for pest or weed control at 62 g/ha: 62 g ai/ha
Outline: as §1

[3] = system: crabgrass (Digitaria sanguinalis); details: Digitaria sanguinalis; for pest or weed control at 16 g/ha: 16 g ai/ha; for pest or weed control at 31 g/ha: 31 g ai/ha; for pest or weed control at 62 g/ha: 62 g ai/ha; for pest or weed control at 125 g/ha: 125 g ai/ha
Outline: as §1

[4] = system: eastern black nightshade (Solanum ptycanthum); details: Solanum, pre-emergence, Preemergence, scale 0 to 100, 0 no effect, 100 complete control, read-out: Plant response rating, Nightshade
Outline: as §1

[5] = system: lambsquarters (Chenopodium album); details: Chenopodium album; for pest or weed control at 16 g/ha: 16 g ai/ha; for pest or weed control at 31 g/ha: 31 g ai/ha; for pest or weed control at 62 g/ha: 62 g ai/ha; for pest or weed control at 125 g/ha: 125 g ai/ha
Outline: as §1

[6] = system: johnsongrass (Sorghum halepense); details: Sorghum halepense; for pest or weed control at 16 g/ha: 16 g ai/ha; for pest or weed control at 31 g/ha: 31 g ai/ha; for pest or weed control at 62 g/ha: 62 g ai/ha; for pest or weed control at 125 g/ha: 125 g ai/ha
Outline: as §1

kochia (Kochia scoparia) = details: Bassia scoparia; for pest or weed control at 16 g/ha: 16 g ai/ha; for pest or weed control at 31 g/ha: 31 g ai/ha; for pest or weed control at 62 g/ha: 62 g ai/ha; for pest or weed control at 125 g/ha: 125 g ai/ha
Outline: as §1

[7] = system: common (oilseed) sunflower (Helianthus annuus); details: Helianthus annuus, pre-emergence, Preemergence, scale 0 to 100, 0 no effect, 100 complete control, read-out: Plant response rating, Sunflower
Outline: as §1

soybean (Glycine max) = details: Glycine max; for plant injury at 16 g/ha: 16 g ai/ha; for plant injury at 31 g/ha: 31 g ai/ha; for plant injury at 62 g/ha: 62 g ai/ha
Outline: as §1

[8] = system: morningglory (Ipomoea coccinea); details: Ipomoea; for pest or weed control at 16 g/ha: 16 g ai/ha; for pest or weed control at 31 g/ha: 31 g ai/ha; for pest or weed control at 62 g/ha: 62 g ai/ha; for pest or weed control at 125 g/ha: 125 g ai/ha
Outline: as §1

[9] = system: giant foxtail (Setaria faberii); details: Setaria faberi; for pest or weed control at 125 g/ha: 125 g ai/ha; for pest or weed control at 16 g/ha: 16 g ai/ha; for pest or weed control at 31 g/ha: 31 g ai/ha; for pest or weed control at 62 g/ha: 62 g ai/ha
Outline: as §1

corn (Zea mays) = details: Zea mays; for Corn plant response rating (crop injury, 0 = no effect, 100 = complete kill) at 16 g/ha: 16 g ai/ha; for Corn plant response rating (crop injury, 0 = no effect, 100 = complete kill) at 31 g/ha: 31 g ai/ha; for Corn plant response rating (crop injury, 0 = no effect, 100 = complete kill) at 62 g/ha: 62 g ai/ha; for Corn plant response rating (crop injury, 0 = no effect, 100 = complete kill) at 125 g/ha: 125 g ai/ha
Outline: as §1

[10] = post-emergence, Postemergence, read-out: Plant response rating (scale of 0 to 100), Cocklebur
[11] = pre-emergence, Preemergence, scale 0 to 100, 0 no effect, 100 complete control, read-out: Plant response rating, Cocklebur
[12] = post-emergence, Postemergence, read-out: Plant response rating (scale of 0 to 100), Surinam Grass
[13] = pre-emergence, Preemergence, scale 0 to 100, 0 no effect, 100 complete control, read-out: Plant response rating, Surinam Grass
[14] = post-emergence, Postemergence, read-out: Plant response rating (scale of 0 to 100), Crabgrass
[15] = pre-emergence, Preemergence, scale 0 to 100, 0 no effect, 100 complete control, read-out: Plant response rating, Crabgrass
[16] = post-emergence, Postemergence, read-out: Plant response rating (scale of 0 to 100), Lambsquarters
[17] = pre-emergence, Preemergence, scale 0 to 100, 0 no effect, 100 complete control, read-out: Plant response rating, Lambsquarters
[18] = post-emergence, Postemergence, read-out: Plant response rating (scale of 0 to 100), Johnsongrass
[19] = pre-emergence, Preemergence, scale 0 to 100, 0 no effect, 100 complete control, read-out: Plant response rating, Johnsongrass
[20] = post-emergence, Postemergence, read-out: Plant response rating (scale of 0 to 100), Kochia
[21] = pre-emergence, Preemergence, scale 0 to 100, 0 no effect, 100 complete control, read-out: Plant response rating, Kochia
[22] = post-emergence, Postemergence, read-out: Plant response rating (scale of 0 to 100), Soybean
[23] = pre-emergence, Preemergence, scale 0 to 100, 0 no effect, 100 complete control, read-out: Plant response rating, Soybean
[24] = post-emergence, Postemergence, read-out: Plant response rating (scale of 0 to 100), Morningglory
[25] = pre-emergence, Preemergence, scale 0 to 100, 0 no effect, 100 complete control, read-out: Plant response rating, Morningglory
[26] = post-emergence, Postemergence, read-out: Plant response rating (scale of 0 to 100), Foxtail, Giant
[27] = pre-emergence, Preemergence, scale 0 to 100, 0 no effect, 100 complete control, read-out: Plant response rating, Foxtail, Giant
[28] = post-emergence, Postemergence, read-out: Plant response rating (scale of 0 to 100), Corn
[29] = pre-emergence, Preemergence, scale 0 to 100, 0 no effect, 100 complete control, read-out: Plant response rating, Corn

Nc1nc(-c2ccc(Cl)cc2)nc(C(=O)O)c1Cl [Compound 65, 6-amino-5-chloro-2-(4-chlorophenyl)-4-pyrimidinecarboxylic acid]
pest or weed control at 16 g/ha [1, 10]: 90% | pest or weed control at 31 g/ha [1, 10]: 100% | pest or weed control at 62 g/ha [1, 10]: 100% | pest or weed control at 125 g/ha ([1]; post-emergence, Postemergence, scale 0 to 100 (0 no effect, 100 complete control), read-out: Cocklebur plant response rating): 100% | pest or weed control at 16 g/ha [1, 11]: 0% | pest or weed control at 31 g/ha [1, 11]: 30% | pest or weed control at 62 g/ha [1, 11]: 50% | pest or weed control at 125 g/ha ([1]; pre-emergence, Preemergence, scale 0 to 100, read-out: Plant response rating, Cocklebur): 90% | pest or weed control at 125 g/ha ([2]; post-emergence, Postemergence, 125 g ai/ha, scale 0 to 100 (0 no effect, 100 complete control), read-out: Surinam Grass plant response rating): 80% | pest or weed control at 16 g/ha [2, 12]: 60% | pest or weed control at 31 g/ha [2, 12]: 80% | pest or weed control at 62 g/ha [2, 12]: 80% | pest or weed control at 16 g/ha [2, 13]: 0% | pest or weed control at 31 g/ha [2, 13]: 40% | pest or weed control at 62 g/ha [2, 13]: 80% | pest or weed control at 16 g/ha [3, 14]: 80% | pest or weed control at 31 g/ha [3, 14]: 80% | pest or weed control at 62 g/ha [3, 14]: 90% | pest or weed control at 125 g/ha ([3]; post-emergence, Postemergence, scale 0 to 100 (0 no effect, 100 complete control), read-out: Crabgrass plant response rating): 90% | pest or weed control at 16 g/ha [3, 15]: 0% | pest or weed control at 31 g/ha [3, 15]: 20% | pest or weed control at 62 g/ha [3, 15]: 70% | pest or weed control at 125 g/ha ([3]; pre-emergence, Preemergence, scale 0 to 100, read-out: Plant response rating, Crabgrass): 80% | pest or weed control at 16 g/ha ([4]; 16 g ai/ha): 0% | pest or weed control at 31 g/ha ([4]; 31 g ai/ha): 0% | pest or weed control at 16 g/ha [5, 16]: 85% | pest or weed control at 31 g/ha [5, 16]: 90% | pest or weed control at 62 g/ha [5, 16]: 90% | pest or weed control at 125 g/ha ([5]; post-emergence, Postemergence, scale 0 to 100 (0 no effect, 100 complete control), read-out: Lambsquarters plant response rating): 95% | pest or weed control at 16 g/ha [5, 17]: 0% | pest or weed control at 31 g/ha [5, 17]: 50% | pest or weed control at 62 g/ha [5, 17]: 80% | pest or weed control at 125 g/ha ([5]; pre-emergence, Preemergence, scale 0 to 100, read-out: Plant response rating, Lambsquarters): 100% | pest or weed control at 16 g/ha [6, 18]: 45% | pest or weed control at 31 g/ha [6, 18]: 60% | pest or weed control at 62 g/ha [6, 18]: 85% | pest or weed control at 125 g/ha ([6]; post-emergence, Postemergence, scale 0 to 100 (0 no effect, 100 complete control), read-out: Johnsongrass plant response rating): 85% | pest or weed control at 16 g/ha [6, 19]: 0% | pest or weed control at 31 g/ha [6, 19]: 50% | pest or weed control at 62 g/ha [6, 19]: 60% | pest or weed control at 125 g/ha ([6]; pre-emergence, Preemergence, scale 0 to 100, read-out: Plant response rating, Johnsongrass): 70% | pest or weed control at 16 g/ha (kochia (Kochia scoparia); [20]): 85% | pest or weed control at 31 g/ha (kochia (Kochia scoparia); [20]): 85% | pest or weed control at 62 g/ha (kochia (Kochia scoparia); [20]): 85% | pest or weed control at 125 g/ha (kochia (Kochia scoparia); post-emergence, Postemergence, scale 0 to 100 (0 no effect, 100 complete control), read-out: Kochia plant response rating): 90% | pest or weed control at 16 g/ha (kochia (Kochia scoparia); [21]): 0% | pest or weed control at 31 g/ha (kochia (Kochia scoparia); [21]): 0% | pest or weed control at 62 g/ha (kochia (Kochia scoparia); [21]): 50% | pest or weed control at 125 g/ha (kochia (Kochia scoparia); pre-emergence, Preemergence, scale 0 to 100, read-out: Plant response rating, Kochia): 70% | pest or weed control at 16 g/ha ([7]; 16 g ai/ha): 40% | pest or weed control at 31 g/ha ([7]; 31 g ai/ha): 70% | pest or weed control at 62 g/ha ([7]; 62 g ai/ha): 95% | plant injury at 16 g/ha (soybean (Glycine max); [22]): 100% | plant injury at 31 g/ha (soybean (Glycine max); [22]): 100% | plant injury at 62 g/ha (soybean (Glycine max); [22]): 100% | plant injury at 125 g/ha (soybean (Glycine max); post-emergence, Postemergence, 125 g ai/ha, scale 0 to 100 (0 no effect, 100 complete control), read-out: Soybean plant response rating): 100% | plant injury at 16 g/ha (soybean (Glycine max); [23]): 85% | plant injury at 31 g/ha (soybean (Glycine max); [23]): 95% | plant injury at 62 g/ha (soybean (Glycine max); [23]): 95% | pest or weed control at 16 g/ha [8, 24]: 90% | pest or weed control at 31 g/ha [8, 24]: 90% | pest or weed control at 62 g/ha [8, 24]: 90% | pest or weed control at 125 g/ha ([8]; post-emergence, Postemergence, scale 0 to 100 (0 no effect, 100 complete control), read-out: Morningglory plant response rating): 95% | pest or weed control at 16 g/ha [8, 25]: 0% | pest or weed control at 31 g/ha [8, 25]: 0% | pest or weed control at 62 g/ha [8, 25]: 20% | pest or weed control at 125 g/ha ([8]; pre-emergence, Preemergence, scale 0 to 100, read-out: Plant response rating, Morningglory): 100% | pest or weed control at 125 g/ha ([9]; post-emergence, Postemergence, scale 0 to 100 (0 no effect, 100 complete control), read-out: Foxtail, Giant plant response rating): 70% | pest or weed control at 16 g/ha [9, 26]: 50% | pest or weed control at 31 g/ha [9, 26]: 60% | pest or weed control at 62 g/ha [9, 26]: 70% | pest or weed control at 16 g/ha [9, 27]: 0% | pest or weed control at 31 g/ha [9, 27]: 10% | pest or weed control at 62 g/ha [9, 27]: 50% | pest or weed control at 125 g/ha ([9]; pre-emergence, Preemergence, scale 0 to 100, read-out: Plant response rating, Foxtail, Giant): 60% | Corn plant response rating (crop injury, 0 = no effect, 100 = complete kill) at 16 g/ha (corn (Zea mays); [28]): 5% | Corn plant response rating (crop injury, 0 = no effect, 100 = complete kill) at 31 g/ha (corn (Zea mays); [28]): 90% | Corn plant response rating (crop injury, 0 = no effect, 100 = complete kill) at 62 g/ha (corn (Zea mays); [28]): 90% | Corn plant response rating (crop injury, 0 = no effect, 100 = complete kill) at 125 g/ha (corn (Zea mays); post-emergence, Postemergence, scale 0 to 100 (0 no effect, 100 complete control), read-out: Corn plant response rating): 90% | Corn plant response rating (crop injury, 0 = no effect, 100 = complete kill) at 16 g/ha (corn (Zea mays); [29]): 0% | Corn plant response rating (crop injury, 0 = no effect, 100 = complete kill) at 31 g/ha (corn (Zea mays); [29]): 0% | Corn plant response rating (crop injury, 0 = no effect, 100 = complete kill) at 62 g/ha (corn (Zea mays); [29]): 0% | Corn plant response rating (crop injury, 0 = no effect, 100 = complete kill) at 125 g/ha (corn (Zea mays); pre-emergence, Preemergence, scale 0 to 100, read-out: Plant response rating, Corn): 30%
